Holding throughout (test): NCI anticancer screen, dose series, 48 h
Test [1] deals with SW-620 colon.
Test [2] has as its system 786-0 renal.
For test [3], the system named is T-47D breast.
Test [4] relates to BT-549 breast.
The test system of test [5] is SK-MEL-2 melanoma.
In test [6] the test system is NCI-H226 lung.
Test [7] deals with SF-268 CNS.
For test [8], the system named is DU-145 prostate.
Test [9] deals with UACC-257 melanoma.
Test [10] relates to CAKI-1 renal.
Test [11] deals with PC-3 prostate.
Test [12] deals with HCT-116 colon.
For test [13], the system named is K-562 leukemia.
For test [14], the system named is ACHN renal.
Test [15] deals with TK-10 renal.
For test [16], the system named is NCI-H23 lung.
Test [17] deals with LOX IMVI melanoma.

This is an account of results in PubChem BioAssay (NCI).

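Values below derive from 48-hour exposures of cells grown in 96-well plates, with endpoints linearly interpolated between the two concentrations bracketing the appropriate inhibition level. At the TGI there is no net growth.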

As to `COC(=O)CC(=O)Nc1sccc1S(=O)(=O)c1ccccc1`, the TGI in test [1] is more than 100 µM; in test [2], more than 100 µM; in test [3], more than 100 µM; in test [4], more than 100 µM; in test [5], more than 100 µM; in test [6], 95 µM. Further, the TGI in test [7], in test [8], in [9], in [10], in test [11] and in test [12] was more than 100 µM in each case. The TGI in [13], in test [14], in [15] and in [16] was more than 100 µM in each case.

As to `CC1(C)OC(=O)C2(O1)C(=O)C1CCCCC12` (centres undefined), the TGI in [1], in test [2], in test [3], in test [4], in test [5] and in test [6] was more than 100 µM each time. In addition, the TGI in test [7], in [8], in test [9], in [10], in [11] and in test [12] was more than 100 µM in each case. Besides, the TGI in test [13], in test [14], in test [15] and in [16] was more than 100 µM each time.

In the case of `COC(=O)C1(Cc2ccc3c(c2)CCC3)Cc2ccc3c(c2C1)CCC3` (centres undefined), the TGI worked out at 32.9 µM in test [17]; 69.7 µM in [1]; 97.6 µM in test [2]; 27.1 µM in test [3]; 56.9 µM in test [4]; 66 µM in [6]. Further, the TGI in [7] was more than 100 µM; in [8], more than 100 µM; in test [9], 30.3 µM; in [10], 79.2 µM; in test [11], 55.9 µM; in [12], 54.8 µM. In addition, the TGI in [13] is more than 100 µM; in test [14], 73.2 µM; in test [15], more than 100 µM; in test [16], 4.63 µM.

For the compound `O=c1oc(-c2ccccc2)c(-c2ccccc2)n1-c1ccc(Br)cc1`, the TGI in test [17], in [1], in [2], in test [3], in [4] and in test [5] was more than 100 µM in each case. For the same compound, the TGI in test [6] was more than 100 µM; in test [7], more than 100 µM; in test [8] it was 89.4 µM; in [9], more than 100 µM; in [10] it was more than 100 µM; in [11] it was more than 100 µM. The TGI was more than 100 µM in test [12], more than 100 µM in test [14], more than 100 µM in test [15] and 85.3 µM in [16].

As for `CCOc1ccc(NCC2CC/C(=C\c3ccc(O)cc3)C2=O)cc1` (centres undefined), the TGI in [17] is 16.8 µM; in [1], 27.1 µM; in [2], 18 µM; in test [3] it was 62.2 µM; in [4] it was 25.6 µM; in [6], more than 61.2 µM. The TGI in test [7] is 30.8 µM; in test [8] it was more than 59.9 µM; in test [9] it was 30.7 µM; in [10], 34.3 µM; in [11], 30.7 µM; in test [12] it was 23.6 µM. For the same compound, the TGI in test [13] is more than 100 µM; in [14], 31.2 µM; in test [15], 26.2 µM; in [16], 50.4 µM.

With `COc1ccc(C(=O)N(C(=S)OCCOc2ccccc2)c2ccccc2)cc1`, the TGI in [17] was more than 100 µM; in test [1], more than 100 µM; in [2], more than 100 µM; in test [3] it was 55.4 µM; in test [4] it was more than 100 µM; in [5] it was 68.5 µM. The TGI in test [7], in test [8], in test [9], in [10], in [11] and in test [12] was more than 100 µM in each case. In addition, the TGI in [13], in test [14], in [15] and in test [16] was more than 100 µM in each case.

Regarding `C=CCCCC1CCCNC1=S` (centres undefined), the TGI in test [1], in test [2], in [3], in test [4], in test [5] and in test [6] was more than 100 µM throughout. For the same compound, the TGI in [7], in [8], in test [9], in [10], in [11] and in test [12] was more than 100 µM in each case. Moreover, the TGI in test [13], in test [14], in test [15] and in test [16] was more than 100 µM in each case.

Take `COC(=O)C1CCC(=O)N1C(c1ccccc1)c1cc(OC)c(OC)c(OC)c1` (centres undefined): the TGI in [17], in test [1], in test [2], in test [3], in test [4] and in test [6] was more than 100 µM each time. Also, the TGI in test [7], in [8], in test [9], in test [10], in [11] and in test [12] was more than 100 µM throughout. Besides, the TGI in test [13] is 49.9 µM; in test [14], more than 100 µM; in test [15] it was more than 100 µM; in [16], more than 100 µM.

For `c1ccc2c(c1)nc1n2C2CCC(C2)N1` (centres undefined), the TGI in test [17], in [1], in test [2], in test [3], in test [4] and in [5] was more than 10 µM throughout. In addition, the TGI in test [6], in test [7], in test [8], in test [9], in test [10] and in test [11] was more than 10 µM in each case. The TGI in test [12], in test [13], in test [15] and in test [16] was more than 10 µM in each case.
